A short description of data set [1]: Solution stability test (residual ratio and generation of active form in buffers of pH 2.0 to 9.0). The format is physicochemical. The arrangement: Rate of generation of active form after 24 hours in buffer with pH of 7.4: tested at 25 µM. The following applies: for Degradation behaviour in buffers (in words): pH 2.0 to 9.0; for Rate of generation of active form after 24 hours in buffer with pH of 7.4: pH 7.4 buffer; for Rate of generation of active form after 24 hours in buffer with pH of 7.4 / Residual ratio: 25° C.; for Residual ratio: 25 umol/L. The procedure:
The test compounds were incubated at 25° C. at a concentration of 25 umol/L in a buffer prepared to have a pH of 2.0, 3.0, 5.0, 7.4, and 9.0. The compounds were measured by HPLC after 0, 3, 6, 9, 12, and 24 hours.
The buffers used at each pH are the following. • pH 2.0: 50 mmol/L glycine buffer • pH 3.0: 50 mmol/L citrate buffer • pH 5.0: 50 mmol/L citrate buffer • pH 7.4: 50 mmol/L phosphate buffer • pH 9.0: 50 mmol/L glycine buffer
The measurement conditions for HPLC are the following.
The yield of the Example and Reference Example compounds and active forms is calculated with each of the peak area of the Example and Reference Example compounds at 0 minutes and the peak area upon dissolution of the corresponding active form at 100 umol/L as 100%. The yield is denoted in terms of %

Another data set can be described thus: physchem. Particulars: thermodynamic from solid; for solubility at 24 h: pH 2, aqueous buffer.
A short description of data set [2]: Evaluation of conversion rate to active form in CD1 mouse plasma. In kind it is in vitro ADME. The following applies: CD1 mouse plasma, incubation time 120 minutes. As to the method:
(§1) The ratio of decrease of a test compound and the conversion ratio to a corresponding active form (2-acetylthieno[3,2-f][1]benzofuran-4,8-dione) in human plasma and CD1 mouse plasma were measured for Example 1.
(§2) The test compounds were incubated at 37° C. at a concentration of 10 umol/L in human plasma (cat. no. 12250210, Cosmo Bio) and CD1 mouse plasma (cat. no. AP3054, KAC) and retrieved for a given time (0, 5, 10, 30, 60, and 120 minutes) and deproteinized, then analyzed by LC-MS. Acetonitrile comprising each of 10% quantity of 1 mol/L hydrochloric acid, 1% quantity of 46% citric acid, and phenytoin as an internal standard was used for deproteinization.
(§3) LC-MS measurement conditions were the following.
(§4) The yield of the Examples compounds and active form 2-acetylthieno[3,2-f][1]benzofuran-4,8-dione is calculated with each of the peak area of the Example compounds at 0 minutes and the peak area upon dissolution of 2-acetylthieno[3,2-f][1]benzofuran-4,8-dione at 100 umol/L as 100%. The yield is denoted in terms of %.
(§5) In the same manner as Example 1, the conversion ratio to an active form was measured for each of the various test compounds in human plasma and CD1 mouse plasma, with incubation time as 120 minutes. It was confirmed that the series of compounds of the invention was converted to an active form with a small interspecies difference in human plasma and CD1 mouse plasma.
(§6) The yield of the active forms is calculated with the each peak area upon dissolution of the generated active form at 100 umol/L as 100%. The yield is denoted in terms of %.

Data set [3] is described as follows: Evaluation of conversion rate to active form in human plasma. The following applies: Human plasma, incubation time 120 minutes. In kind it is in vitro ADME. The procedure:
as §1, §2, §3, §4, §5, §6

For orientation: solubility means the concentration that dissolves in the medium under given conditions.

Each structure is given as a SMILES string. In brackets after ≈: the same amount, converted by molar mass. Several values for one entry are separate records, joined by “and”; a condition that tells them apart may be missing. Identical values can stand only once. Counter-ions that a name gives are not always drawn.

Method for physchem: The solubility of the water-soluble prodrugs described in the Examples and the Reference Examples was measured. […] The filtrate was measured by HPLC.

For `CC1(C)CCc2c(OC(=O)NCCNCC(=O)O)c(OC(=O)NCCNCC(=O)O)c3ccccc3c2O1` [Example 4, 2,2′-[(2,2-Dimethyl-3,4-dihydro-2H-benzo[H]chromene-5,6-diyl)bis(oxycarbonyliminoethane-2,1-diylimino)]diacetic acid dihydrochloride], the “Degradation behaviour in buffers (in words)” value (“Degradation behaviour” for short) in data set [1] is “pH dependent and chemical degradation progressed”. The “Stability in solution (in words)” value in data set [1] (pH of 2.0, 25° C.) is “sufficient stability”; in data set [1] (pH of 3.0, 25° C.) it was “sufficient stability”. In the data set “physchem”, the solubility at 24 h was > 10000 µg/mL.
In the case of `CN1CC[C@H](c2c(O)cc(OC(=O)N(C)CCN)c3c(=O)cc(-c4ccccc4Cl)oc23)[C@H](O)C1` [Example 9, 2-(2-chlorophenyl)-7-hydroxy-8-[(3S,4R)-3-hydroxy-1-methylpiperidin-4-yl]-4-oxo-4H-chromen-5-yl (2-aminoethyl)methylcarbamate ditrifluoroacetate], in data set [1], the “Degradation behaviour” value was “pH dependent and chemical degradation progressed”. For the same molecule, in data set [1], the “Rate of generation of active form after 24 hours in buffer with pH of 7.4” value (“Rate of generation of active form” below) was found to be 23%. Moreover, the “Stability in solution (in words)” value in data set [1] (pH of 2.0, 25° C.) was “stable”; in data set [1] (pH of 3.0, 25° C.), “stable”; in data set [1] (pH of 5.0, 25° C.) it was “stable”.
For `CNCCN(C)C(=O)Oc1cc(O)c2c(=O)cc(-c3ccccc3Cl)oc2c1[C@H]1CCN(C)C[C@H]1O` [Example 10, 2-(2-Chlorophenyl)-5-hydroxy-8-[(3S,4R)-3-hydroxy-1-methylpiperidin-4-yl]-4-oxo-4H-chromen-7-yl methyl[2-(methylamino)ethyl]carbamate ditrifluoroacetate], in data set [1], the “Degradation behaviour” value was “pH dependent and chemical degradation progressed”; the “Rate of generation of active form” value is recorded as 96%. In addition, the “Stability in solution (in words)” value in data set [1] (pH of 2.0, 25° C.) was “sufficient stability”. Moreover, the “Stability in solution (in words)” value in data set [1] (pH of 3.0, 25° C.) is on record as “sufficient stability”.
For `CN1CC[C@H](c2c(OC(=O)N(C)CCN)cc(O)c3c(=O)cc(-c4ccccc4Cl)oc23)[C@H](O)C1` [Example 8, 2-(2-chlorophenyl)-5-hydroxy-8-[(3S,4R)-3-hydroxy-1-methylpiperidin-4-yl]-4-oxo-4H-chromen-7-yl (2-aminoethyl) methylcarbamate ditrifluoroacetate], the Residual ratio was determined as 100% in data set [1] (pH2.0 buffer, 0 hr); 100% in data set [1] (pH2.0 buffer, 3 hr); 100% in data set [1] (pH2.0 buffer, 6 hr); 100% in data set [1] (pH2.0 buffer, 9 hr); 100% in data set [1] (pH2.0 buffer, 12 hr); 100% in data set [1] (pH2.0 buffer, 24 hr). Also, the Residual ratio in data set [1] (pH3.0 buffer, 0 hr) was 100%; in data set [1] (pH3.0 buffer, 3 hr), 100%; in data set [1] (pH3.0 buffer, 6 hr), 100%; in data set [1] (pH3.0 buffer, 9 hr), 100%; in data set [1] (pH3.0 buffer, 12 hr), 100%; in data set [1] (pH3.0 buffer, 24 hr) it was 100%. Further, the Residual ratio in data set [1] (pH5.0 buffer, 0 hr) is 100%; in data set [1] (pH5.0 buffer, 3 hr) it was 98.2%; in data set [1] (pH5.0 buffer, 6 hr), 96.1%; in data set [1] (pH5.0 buffer, 9 hr), 94.4%; in data set [1] (pH5.0 buffer, 12 hr) it was 92.4%; in data set [1] (pH5.0 buffer, 24 hr) it was 85% and 85.2%. In addition, the Residual ratio worked out at 76.4% in data set [1] (pH7.4 buffer, 0 hr); 0.1% in data set [1] (pH7.4 buffer, 3 hr); 0.0% in data set [1] (pH7.4 buffer, 6 hr); 0.1% in data set [1] (pH7.4 buffer, 9 hr); 0.2% in data set [1] (pH7.4 buffer, 12 hr); 0.5% in data set [1] (pH7.4 buffer, 24 hr). The Residual ratio is 9.7% in data set [1] (pH9.0 buffer, 0 hr); 0.2% in data set [1] (pH9.0 buffer, 3 hr); 0.2% in data set [1] (pH9.0 buffer, 6 hr); 0.1% in data set [1] (pH9.0 buffer, 9 hr); 0.1% in data set [1] (pH9.0 buffer, 12 hr); 0.0% in data set [1] (pH9.0 buffer, 24 hr). In data set [1], the “Degradation behaviour” value is “pH dependent and chemical degradation progressed”. In data set [1], the “Rate of generation of active form” value is listed as 88%. The “Stability in solution (in words)” value in data set [1] (pH of 2.0, 25° C.) is recorded as “sufficient stability”; in data set [1] (pH of 3.0, 25° C.), “sufficient stability”. Moreover, the solubility in the data set “physchem” (pH 5, aqueous buffer) was > 10000 µg/mL.
With `CC(=O)c1cc2c(o1)C(=O)c1cccc(O)c1C2=O` [2-acetyl-5-hydroxynaphtho[2,3-b]furan-4,9-dione, reference compound], in the data set “physchem” (50 mmol/L glycine buffer, pH 3, aqueous buffer), the solubility was 1 µg/mL (≈ 3.9 µM).
Take `COC(=O)[C@H](CCNC(=O)Oc1c(C)c(CCCCCCCCCCOC(=O)OC(C)(C)C)c(OC(=O)NCC[C@H](NC(=O)OC(C)(C)C)C(=O)OC)c(OC)c1OC)NC(=O)OC(C)(C)C` [Reference Example 11, Dimethyl (2S,2′S)-4,4′-[(2-{10-[(tert-butoxycarbonyl)oxy]decayl}-5,6-dimethoxy-3-methylbenzene-1,4-diyl)bis(oxycarbonylimino)]bis{2-[(tert-butoxycarbonyl)amino]butanoate}]: in data set [1], the “Rate of generation of active form” value was determined as 91%. Besides, the “Conversion ratio to an active form (Measurement value %)” value in data set [2] and in data set [3] was 100% in each case.
As to `CNCCN(C)C(=O)Oc1cc(O)c([C@H]2CCN(C)C[C@H]2O)c2oc(-c3ccccc3Cl)cc(=O)c12` [Example 11, 2-(2-Chlorophenyl)-7-hydroxy-8-[(3S,4R)-3-hydroxy-1-methylpiperidin-4-yl]-4-oxo-4H-chromen-5-yl methyl[2-(methylamino)ethyl]carbamate ditrifluoroacetate], the “Degradation behaviour” value in data set [1] is “pH dependent and chemical degradation progressed”. The “Stability in solution (in words)” value was “stable” in data set [1] (pH of 2.0, 25° C.); “stable” in data set [1] (pH of 3.0, 25° C.); “stable” in data set [1] (pH of 5.0, 25° C.).
As to `CC1=CC(=O)c2ccccc2C1=O` [2-methylnaphthalen-1,4-dione, reference compound], in the data set “physchem” (50 mmol/L glycine buffer), the solubility at 24 h turned out to be 97 µg/mL (≈ 563 µM).
`O=C1C(=O)C(c2ccccc2)=C2OCOC2=C1c1ccccc1` [4,7-diphenyl-1,3-benzodioxol-5,6-dione, reference compound] showed a solubility at 24 h in the data set “physchem” (50 mmol/L glycine buffer) of 0.3 µg/mL (≈ 0.986 µM).

Source of the values: patent publication US20200207782A1, “CHEMICALLY ACTIVATED WATER-SOLUBLE PRODRUG” (SUMITOMO DAINIPPON PHARMA CO., LTD, priority 2017, published 2020).
